For orientation: IC50 means the concentration needed to halve the response being measured.

The source of these data is patent US5496849A, “Sulfonic acid derivative and its pharmaceutical application” (Toray Industries, Inc., priority 1992, dated 1996).

In assay [1] the test system is platelet aggregation induced by U-46619 in human platelet-rich plasma (PRP). The assay is described as follows: Platelet aggregation inhibitory action (U-46619-induced, human platelet-rich plasma). The note with it: compounds added 1 minute before U-46619, turbidity. The format is cell-based. Here is the method: Human whole blood drawn from the median cubital vein was centrifuged for 10 minutes at 800 rpm, and the upper portion was collected as platelet-rich plasma (PRP). […] The size of the aggregates were measured with a platelet aggregate measuring instrument (Hematracer 1, Nikko Bioscience) as the change in turbidity. The compounds were added 1 minute before addition of U-46619, and the concentration which inhibits aggregation by 50% was calculated as the IC50 value.

The subject of assay [2] is vasoconstriction of rat thoracic aorta induced by U-46619. The assay is described as follows: Vasoconstriction inhibitory action (U-46619-induced constriction of thoracic aorta spiral specimens). Also on record: species or system long Evans rats. The note with it: 10 min, pH 7.4, minimum concentration at which inhibition rate was 50% or more, 10 ng/ml U-46619, drug applied 10 minutes, 37° C., read-out: Vasoconstriction Inhibitory Action MIC. Here is the method: Male and female long Evans rats having body weights of 150-200 g were used in this example. After sacrificing the animals by decapitation, the thoracic aorta was removed, and the outer membrane was peeled off to obtain I2 spiral specimens roughly 2 cm in length. Blood vessel specimens were warmed to 37° C. and preserved in a Magnus tube containing 10 ml of a nutrient solution aerated with 95% oxygen+5% carbon dioxide gas. The nutrient solution contained 118.3 mmol of NaCl, 4.7 mmol of KCl, […] of CaCl, 1.2 mmol of MgSO4, 1.2 mmol of KH2 PO4, 25 mmol of NaCHO3, 11.1 mmol of D-glucose, 0.03 mmol of EDTA along with 1 μg/ml each of atropin, phentolamine, mepiramine, cyproheptadine, propranolol and indometacin, and was adjusted to a pH of 7.4. Vasoconstriction was measured using an isometric transducer (Harward UF-1 Transducer and Sekonic SS-250F Graph recorder). An equilibration time of 3 hours was provided after the blood vessels were installed on the Magnus device, and fresh nutrient solution was replaced every 30 minutes during that time. […] of U-46619, having TXA2 action (to reach roughly 75% of maximum constriction), was applied for 30 minutes to constrict the vessels. The maximum stable constriction during this time was taken to be the control constriction (C1). Next, the blood vessels were washed several times with nutrient solution to remove the drug. After allowing a recovery period of 30 minutes, the test drugs were applied at various concentrations for 10 minutes followed by again constricting the vessels by applying 10 ng/ml of U-46619 for 30 minutes. The maximum stable constriction during this time was taken to be the constriction of the test drugs (C2). The inhibition rates of vasoconstriction induced by the drugs and U-46619 were determined according to the following formula, and the minimum concentration at which the inhibition rate was 50% or more was determined as the minimum inhibitory concentration (MIC).
((C1-C2)/C1)×100=Inhibition rate (%)

For a further assay, the target named is T1, Thromboxane A2 Receptor (Oryctolagus cuniculus, UniProt Q6WQI8).
T1 sequence (Q6WQI8 1-233): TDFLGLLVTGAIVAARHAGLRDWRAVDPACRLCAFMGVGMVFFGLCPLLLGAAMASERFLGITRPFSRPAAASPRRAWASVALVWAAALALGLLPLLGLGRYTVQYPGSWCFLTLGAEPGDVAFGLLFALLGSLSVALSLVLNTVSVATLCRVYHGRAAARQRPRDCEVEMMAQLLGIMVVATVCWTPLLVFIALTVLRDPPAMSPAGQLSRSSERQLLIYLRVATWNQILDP
The assay is described as follows: Receptor binding experiment: Thromboxane A2 Receptor Binding Test ([3H]SQ29548, washed platelets). Set-up: species or system New Zealand White rabbits. The note with it: rabbit washed platelets; [3H]SQ29548 3 nM; 60 minutes at 25° C.; read-out: Binding Inhibitory Action IC50 (converted). Here is the method: Whole blood from New Zealand White rabbits was collected into a container containing ACD solution (1.175 g of sodium citrate, 0.685 g of citric acid, and 1 g of dextrose dissolved in 50 ml of distilled water) followed by centrifuging at room temperature for 10 minutes at 180 ×g to obtain platelet-rich plasma. Moreover, this platelet-rich plasma was further centrifuged at room temperature and 2800 ×g to result in sedimentation of the platelets. The platelets were resuspended in 50 mM Tris hydrochloric acid buffer solution (pH 7.2, containing […]) and again centrifuged at 4° C. for 15 minutes at 2800 ×g. This procedure was repeated twice to prepare the washed platelets, and adjusted to a final concentration of 10 mg/ml (wet weight). Tritium-labelled SQ29548 ([3H]SQ29548) was used for the TXA2 ligand. In an antagonism experiment, 20 μl of [3H]SQ29548 at a final concentration of 3 nM were added to 500 μl of a 10 mg/ml platelet suspension, together with adding 2.6 μl of the test drug dissolved in a suitable buffer. After incubating for 60 minutes at 25° C., the mixture was filtered over a glass filter using the Celherbster method, the filter was washed with 50 mM Tris hydrochloric acid buffer solution (3 ×4 ml), and radioactivity was measured with a scintillation counter to determine the amount of [3H]SQ29548 bound to the platelets. In addition, in a saturation test, 20 μl of [3H]SQ29548 were added to a final concentration of 0.1-50 nM followed by the addition of 2.6 μl of BM13505 at a final concentration of 1 μM in order to examine non-specific binding and carry out a binding experiment. The concentration of the test drug which inhibited binding of [3H]SQ29548 by 50% was determined as the IC50 value.

With `O=C(O)COc1cccc2c1O[C@H]1CC[C@H](NS(=O)(=O)c3ccccc3)[C@@H]21` (racemic) [(90), (1SR, 3aSR, 8bRS)-1-benzenesulfonamido-2,3,3a,8b-tetrahydro-1H-cyclopenta[b]benzofuran-5-yloxyacetic acid], the IC50 in assay [1] is 0.099 µM; on Thromboxane A2 Receptor it was 0.00847 µM. Further, in assay [2], the minimal effective concentration amounted to 0.003 µg/mL.

`CO[C@@H]1C[C@@H]2Oc3c(OCC(=O)O)cccc3[C@@H]2[C@H]1NS(=O)(=O)c1ccccc1` (racemic) [(92), (1RS, 2RS, 3aSR, 8bRS)-1-benzenesulfonamido-2-methoxy-2,3,3a,8b-tetrahydro-1H-cyclopenta[b]benzofuran-5-yloxyacetic acid]: the IC50 is 0.1 µM in assay [1] and 0.0572 µM on Thromboxane A2 Receptor. In assay [2], the minimal effective concentration was 0.1 µg/mL.

Regarding `O=C(O)COc1cccc2c1O[C@H]1CC[C@@H](NS(=O)(=O)c3ccccc3)[C@@H]21` (racemic) [(94), (1RS, 3aSR, 8bRS)-1-benzenesulfonamido-2,3,3a,8b-tetrahydro-1H-cyclopenta[b]benzofuran-5-yloxyacetic acid], the IC50 in assay [1] was 0.068 µM; at Thromboxane A2 Receptor it was 0.0167 µM. Also, in assay [2], the minimal effective concentration was determined as 0.1 µg/mL.

For `CCOC(=O)COc1cccc2c1O[C@H]1C[C@@H](O)[C@H](NS(=O)(=O)c3ccccc3)[C@@H]21` (racemic) [(102), (1RS, 2RS, 3aSR, 8bRS)-1-benzenesulfonamido-2-hydroxy2,3,3a,8b-tetrahydro-1H-cyclopenta[b]benzofuran-5-yloxyacetic acid ethyl ester], the IC50 in assay [1] was 0.22 µM; at Thromboxane A2 Receptor, 0.415 µM. For the same compound, in assay [2], the minimal effective concentration is 0.03 µg/mL.

As to `O=C(O)COc1cccc2c1O[C@H]1CC[C@H](OS(=O)(=O)c3ccccc3)[C@@H]21` (racemic) [(121), (1SR, 3aSR, 8bSR)-1-(phenylsulfonyloxy)-2,3,3a,8b-tetrahydro-1H-cyclopenta[b]benzofuran-5-yloxyacetic acid], the IC50 in assay [1] is 0.13 µM; on Thromboxane A2 Receptor, 0.00128 µM. Besides, the minimal effective concentration in assay [2] was 0.003 µg/mL.

For `Cc1ccc(S(=O)(=O)N[C@@H]2[C@H]3c4cccc(OCC(=O)O)c4O[C@H]3C[C@H]2O)cc1` (relative stereo) [(49), (1RS, 2RS, 3aSR, 8bRS)-1-(p-toluenesulfonamido)-2-hydroxy-2,3,3a,8b-tetrahydro-1H-cyclopenta[b]benzofuran-5-yloxyacetatic acid], the IC50 in assay [1] was 0.022 µM; on Thromboxane A2 Receptor, 0.00882 µM. Besides, the minimal effective concentration in assay [2] turned out to be 0.01 µg/mL.

As for `O=C(O)COc1cccc2c1O[C@H]1C[C@@H](O)[C@H](NS(=O)(=O)c3ccccc3Cl)[C@@H]21` (relative stereo) [(59), (1RS, 2RS, 3aSR, 8bRS)-1-(o-chlorobenzenesulfonamido)-2-hydroxy-2,3,3a,8b-tetrahydro-1-cyclopenta[b]benzofuran-5-yloxyacetic acid], the IC50 was 0.069 µM in assay [1] and 0.0227 µM on Thromboxane A2 Receptor. The minimal effective concentration in assay [2] is 0.1 µg/mL.

As to `O=C(O)/C=C/c1cccc2c1O[C@H]1C[C@@H](O)[C@H](NS(=O)(=O)c3ccccc3)[C@@H]21` (relative stereo) [(88), (1RS, 2RS, 3aSR, 8bRS)-1-benzenesulfonamido-2-hydroxy-2,3,3a,8b-tetrahydro-1H-cyclopenta[b]benzofuran-5-(E)-acrylic acid], the IC50 in assay [1] was 0.45 µM; at Thromboxane A2 Receptor it was 0.648 µM. The minimal effective concentration in assay [2] came out at 0.3 µg/mL.

In the case of `O=C(O)COc1ccc(CCNS(=O)(=O)c2ccccc2)cc1` [Control, 4-(2-(benzenesulfonamido)ethyl) phenoxyacetic acid, reference compound], the IC50 in assay [1] is 5 µM; at Thromboxane A2 Receptor it was 4.17 µM. Moreover, the minimal effective concentration in assay [2] was determined as 0.3 µg/mL.
